Measurements from patent publication US20180327367A1, “MACROCYCLIC BROAD SPECTRUM ANTIBIOTICS” (priority 2015, published 2018).
In brackets after ≈: the same amount, converted by molar mass. Where two headings read alike, the source gives them in different places.

Assays:
[1] = system: Escherichia coli ATCC 25922; assay: Minimum inhibitory concentration, broth micro-dilution (CLSI), E. coli; type: cell-based; conditions: Escherichia coli, ATCC25922, 22 h, 35° C., 22 hours
[2] = system: Methicillin Resistant Staphylococcus aureus strain USA 300, NRS384; assay: Minimum inhibitory concentration, broth micro-dilution (CLSI), S. aureus; type: cell-based; conditions: Staphylococcus aureus, MRSA / NRS 384 / USA300, 22 h, 35° C., 22 hours
How it was run: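 CLSI broth microdilution in cation-adjusted Mueller Hinton Broth with 0.002% Tween-80; inoculum final OD600 0.0005, 22 hours at 35° C. Ten 2-fold dilutions starting at 4 μg/mL (protocol 2) or 0.5 μg/mL (protocol 3).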

[3] = system: Escherichia coli MC4100 harboring the IMP4213 (E. coli IMP); assay: microbe, parasite or virus in culture; type: cell-based; conditions: Escherichia coli, 22 h, read-out: MIC (μg/mL) E. coli IMP, E. coli MC4100 IMP4213, increased outer-membrane permeability; 35° C., 22 hours
How it was run: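 Top conc 4 μg/mL (protocol 2) or 0.5 μg/mL (protocol 3), 2-fold series, 10 points. Final OD600 0.0005; 22 h, 35° C. IMP4213 = permeable outer membrane.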

[4] = target: T1, SpsB (Staphylococcus aureus signal peptidase) (Staphylococcus aureus, UniProt P0A070); assay: cell-based; type: biochemical; conditions: SpsB IC50, whole-cell S. aureus (USA300 background, overexpressing SpsB) as SpsB source; fluorogenic peptide substrate, kinetic read 30 min
T1 construct: This assay uses a suspension of Staphylococcus aureus cells as a source of SpsB instead of recombinant SpsB protein; endogenous in cells; host or cells: S. aureus, USA300 background, overexpressing SpsB (whole-cell suspension from frozen pellets)
T1 sequence (P0A070 whole entry): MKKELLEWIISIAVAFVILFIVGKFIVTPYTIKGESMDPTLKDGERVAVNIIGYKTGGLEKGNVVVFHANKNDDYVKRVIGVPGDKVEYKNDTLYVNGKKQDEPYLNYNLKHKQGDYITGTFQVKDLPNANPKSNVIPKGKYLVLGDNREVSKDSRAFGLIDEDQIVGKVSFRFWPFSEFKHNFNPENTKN
How it was run: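 Cleavage of an internally quenched (Dabcyl)βAla-KPAKAAE(Edans) peptide, added as 20 μM solution mixed 1:1 with cells, was followed for 30 min at 340/490 nm. SpsB came from a suspension of SpsB-overexpressing USA300 S. aureus in Tween-80-containing PBS buffer. Slopes plotted against 3-fold compound dilutions gave IC50.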

[5] = E. coli ATCC 25922, read-out: MIC (μg/mL) E. coli
[6] = MRSA USA 300 NRS384, read-out: MIC (μg/mL) S. aureus
[7] = read-out: MIC (μg/mL) E. coli, E. coli ATCC 25922
[8] = read-out: MIC (μg/mL) S. aureus, MRSA USA 300 NRS384

| SMILES | MIC [1, 5] | MIC [2, 6] | MIC [3] | IC50 [4] | MIC [1, 7] | MIC [2, 8] |
| --- | --- | --- | --- | --- | --- | --- |
| CCCCc1ccc(-c2cccc(C(=O)N[C@@H](CCCCN)C(=O)N(C)[C@@H]3C(=O)N[C@@H](C)C(=O)N[C@H](C(=O)NCC#N)Cc4ccc(OCCN)c(c4)-c4cc3ccc4OCCN)c2)cc1 [Compound 137] | 4 µg/mL (≈ 4.43 µM) | 0.063 µg/mL (≈ 0.0698 µM) | 0.063 µg/mL (≈ 0.0698 µM) | 1.1 nM |  |  |
| C[C@@H]1NC(=O)[C@@H](N(C)C(=O)[C@H](CCN)NC(=O)c2ccc(-c3ccc4c(c3)CCCC4)cc2)c2ccc(OCCN)c(c2)-c2cc(ccc2OCCN)C[C@@H](C(=O)NCC#N)NC1=O [Compound 138] |  |  | 0.055 µg/mL (≈ 0.0631 µM) | 0.93 nM | 0.25 µg/mL (≈ 0.287 µM) | 0.063 µg/mL (≈ 0.0722 µM) |
| C[C@@H]1NC(=O)[C@@H](N(C)C(=O)[C@H](CCN)NC(=O)c2ccc(-c3ccc4c(c3)CCCC4)cc2F)c2ccc(OCCN)c(c2)-c2cc(ccc2OCCN)C[C@@H](C(=O)NCC#N)NC1=O [Compound 139] |  |  | 0.012 µg/mL (≈ 0.0135 µM) | 0.94 nM | 0.25 µg/mL (≈ 0.281 µM) | 0.047 µg/mL (≈ 0.0528 µM) |
| C[C@@H]1NC(=O)[C@@H](N(C)C(=O)[C@H](CCN)NC(=O)c2ccc(-c3ccc4c(c3)CCCC4)cc2Cl)c2ccc(OCCN)c(c2)-c2cc(ccc2OCCN)C[C@@H](C(=O)NCC#N)NC1=O [Compound 140] |  |  | 0.0078 µg/mL (≈ 0.0086 µM) | 0.99 nM | 0.13 µg/mL (≈ 0.143 µM) | 0.031 µg/mL (≈ 0.0342 µM) |
| CCCCc1ccc(-c2ccc(C(=O)N[C@@H](CCCN)C(=O)N(C)[C@@H]3C(=O)N[C@@H](C)C(=O)N[C@H](C(=O)NCC#N)Cc4ccc(OCCN)c(c4)-c4cc3ccc4OCCN)c(C)c2)cc1 [Compound 142] | 0.16 µg/mL (≈ 0.177 µM) | 0.039 µg/mL (≈ 0.0432 µM) | 0.042 µg/mL (≈ 0.0466 µM) | 0.72 nM |  |  |
| Cc1cc(-c2ccc(C(F)(F)F)cc2)ccc1C(=O)N[C@@H](CCN)C(=O)N(C)[C@@H]1C(=O)N[C@@H](C)C(=O)N[C@H](C(=O)NCC#N)Cc2ccc(OCCN)c(c2)-c2cc1ccc2OCCN [Compound 143] | 0.44 µg/mL (≈ 0.489 µM) | 0.047 µg/mL (≈ 0.0522 µM) | 0.018 µg/mL (≈ 0.02 µM) | 0.57 nM |  |  |
| Cc1cc(-c2ccc(-c3ccccc3)cc2)ccc1C(=O)N[C@@H](CCN)C(=O)N(C)[C@@H]1C(=O)N[C@@H](C)C(=O)N[C@H](C(=O)NCC#N)Cc2ccc(OCCN)c(c2)-c2cc1ccc2OCCN [Compound 144] | 0.16 µg/mL (≈ 0.176 µM) | 0.031 µg/mL (≈ 0.0341 µM) | 0.053 µg/mL (≈ 0.0584 µM) | 0.91 nM |  |  |
| Cc1cc(-c2ccc(C(C)C)cc2)ccc1C(=O)N[C@@H](CCN)C(=O)N(C)[C@@H]1C(=O)N[C@@H](C)C(=O)N[C@H](C(=O)NCC#N)Cc2ccc(OCCN)c(c2)-c2cc1ccc2OCCN [Compound 145] | 0.16 µg/mL (≈ 0.183 µM) | 0.047 µg/mL (≈ 0.0538 µM) | 0.012 µg/mL (≈ 0.0137 µM) | 0.59 nM |  |  |
| Cc1cc(-c2ccc(CC(C)C)cc2)ccc1C(=O)N[C@@H](CCN)C(=O)N(C)[C@@H]1C(=O)N[C@@H](C)C(=O)N[C@H](C(=O)NCC#N)Cc2ccc(OCCN)c(c2)-c2cc1ccc2OCCN [Compound 146] | < 0.063 µg/mL | 0.047 µg/mL (≈ 0.0529 µM) | 0.0078 µg/mL (≈ 0.00878 µM) | 0.9 nM |  |  |
| C[C@@H]1NC(=O)[C@@H](N(C)C(=O)[C@H](CCN)NC(=O)c2ccc(-c3ccc(Cl)cc3)cc2)c2ccc(OCCN)c(c2)-c2cc(ccc2OCCN)C[C@@H](C(=O)NCC#N)NC1=O [Compound 147] |  |  | 0.023 µg/mL (≈ 0.027 µM) | 0.69 nM | 1.5 µg/mL (≈ 1.76 µM) | 0.094 µg/mL (≈ 0.11 µM) |
| Cc1cc(-c2ccc(Cl)cc2)ccc1C(=O)N[C@@H](CCN)C(=O)N(C)[C@@H]1C(=O)N[C@@H](C)C(=O)N[C@H](C(=O)NCC#N)Cc2ccc(OCCN)c(c2)-c2cc1ccc2OCCN [Compound 148] | 0.88 µg/mL (≈ 1.02 µM) | 0.055 µg/mL (≈ 0.0635 µM) | 0.0098 µg/mL (≈ 0.0113 µM) | 0.75 nM |  |  |
| Cc1cc(-c2ccccc2)ccc1C(=O)N[C@@H](CCN)C(=O)N(C)[C@@H]1C(=O)N[C@@H](C)C(=O)N[C@H](C(=O)NCC#N)Cc2ccc(OCCN)c(c2)-c2cc1ccc2OCCN [Compound 149] | 3 µg/mL (≈ 3.61 µM) | 0.19 µg/mL (≈ 0.228 µM) | 0.023 µg/mL (≈ 0.0276 µM) | 0.8 nM |  |  |
| Cc1cc(-c2ccccc2)ccc1C(=O)N[C@@H](CCCN)C(=O)N(C)[C@@H]1C(=O)N[C@@H](C)C(=O)N[C@H](C(=O)NCC#N)Cc2ccc(OCCN)c(c2)-c2cc1ccc2OCCN [Compound 150] | 4 µg/mL (≈ 4.73 µM) | 0.25 µg/mL (≈ 0.296 µM) | 0.063 µg/mL (≈ 0.0745 µM) | 0.82 nM |  |  |
| CCc1ccc(-c2ccc(C(=O)N[C@@H](CCN)C(=O)N(C)[C@@H]3C(=O)N[C@@H](C)C(=O)N[C@H](C(=O)NCC#N)Cc4ccc(OCCN)c(c4)-c4cc3ccc4OCCN)c(C)c2)cc1 [Compound 151] | 0.31 µg/mL (≈ 0.36 µM) | 0.031 µg/mL (≈ 0.036 µM) | 0.012 µg/mL (≈ 0.014 µM) | 0.59 nM |  |  |
| CCc1ccc(-c2ncc(C(=O)N[C@@H](CCN)C(=O)N(C)[C@@H]3C(=O)N[C@@H](C)C(=O)N[C@H](C(=O)NCC#N)Cc4ccc(OCCN)c(c4)-c4cc3ccc4OCCN)c(C)n2)cc1 [Compound 155] | 0.44 µg/mL (≈ 0.51 µM) | 0.13 µg/mL (≈ 0.151 µM) | 0.0098 µg/mL (≈ 0.0114 µM) | 2.5 nM |  |  |
| Cc1nc(-c2ccc(CC(C)C)cc2)ncc1C(=O)N[C@@H](CCN)C(=O)N(C)[C@@H]1C(=O)N[C@@H](C)C(=O)N[C@H](C(=O)NCC#N)Cc2ccc(OCCN)c(c2)-c2cc1ccc2OCCN [Compound 157] | 0.098 µg/mL (≈ 0.11 µM) | 0.023 µg/mL (≈ 0.0258 µM) | 0.0034 µg/mL (≈ 0.00382 µM) | 0.79 nM |  |  |
| CCCCCCc1ccc(-c2ncc(C(=O)N[C@@H](CCN)C(=O)N(C)[C@@H]3C(=O)N[C@@H](C)C(=O)N[C@H](C(=O)NCC#N)Cc4ccc(OCCN)c(c4)-c4cc3ccc4OCCN)c(C)n2)cc1 [Compound 159] | 0.13 µg/mL (≈ 0.142 µM) | 0.063 µg/mL (≈ 0.0686 µM) | < 0.0039 µg/mL | 0.82 nM |  |  |
| Cc1nc(-c2ccc(C(C)C)cc2)ncc1C(=O)N[C@@H](CCN)C(=O)N(C)[C@@H]1C(=O)N[C@@H](C)C(=O)N[C@H](C(=O)NCC#N)Cc2ccc(OCCN)c(c2)-c2cc1ccc2OCCN [Compound 160] | 0.13 µg/mL (≈ 0.148 µM) | 0.047 µg/mL (≈ 0.0537 µM) | 0.0039 µg/mL (≈ 0.00445 µM) | 0.66 nM |  |  |
| CCCCCc1ccc(-c2ncc(C(=O)N[C@@H](CCN)C(=O)N(C)[C@@H]3C(=O)N[C@@H](C)C(=O)N[C@H](C(=O)NCC#N)Cc4ccc(OCCN)c(c4)-c4cc3ccc4OCCN)c(C)n2)cc1 [Compound 162] | 0.063 µg/mL (≈ 0.0697 µM) | 0.023 µg/mL (≈ 0.0254 µM) | 0.0025 µg/mL (≈ 0.00277 µM) | 0.72 nM |  |  |
| Cc1nc(-c2ccc(C(C)(C)C)cc2)ncc1C(=O)N[C@@H](CCN)C(=O)N(C)[C@@H]1C(=O)N[C@@H](C)C(=O)N[C@H](C(=O)NCC#N)Cc2ccc(OCCN)c(c2)-c2cc1ccc2OCCN [Compound 163] | < 0.063 µg/mL | 0.031 µg/mL (≈ 0.0348 µM) | 0.002 µg/mL (≈ 0.00225 µM) | 0.71 nM |  |  |
| CCCCOc1ccc(-c2ncc(C(=O)N[C@@H](CCN)C(=O)N(C)[C@@H]3C(=O)N[C@@H](C)C(=O)N[C@H](C(=O)NCC#N)Cc4ccc(OCCN)c(c4)-c4cc3ccc4OCCN)c(C)n2)cc1 [Compound 164] | 0.13 µg/mL (≈ 0.143 µM) | 0.047 µg/mL (≈ 0.0519 µM) | 0.0039 µg/mL (≈ 0.0043 µM) | 0.62 nM |  |  |
| CCCc1ccc(-c2nc(C)c(C(=O)N[C@@H](CCN)C(=O)N(C)[C@@H]3C(=O)N[C@@H](C)C(=O)N[C@H](C(=O)NCC#N)Cc4ccc(OCCN)c(c4)-c4cc3ccc4OCCN)c(C)n2)cc1 [Compound 165] | 0.19 µg/mL (≈ 0.213 µM) | 0.047 µg/mL (≈ 0.0528 µM) | 0.0039 µg/mL (≈ 0.00438 µM) | 0.61 nM |  |  |
| Cc1nc(-c2ccc(CC(C)C)cc2)sc1C(=O)N[C@@H](CCN)C(=O)N(C)[C@@H]1C(=O)N[C@@H](C)C(=O)N[C@H](C(=O)NCC#N)Cc2ccc(OCCN)c(c2)-c2cc1ccc2OCCN [Compound 166] | 0.5 µg/mL (≈ 0.559 µM) | 0.063 µg/mL (≈ 0.0704 µM) | 0.016 µg/mL (≈ 0.0179 µM) | 0.78 nM |  |  |
